Test results from patent publication US20230355720A1, “PHARMACEUTICAL COMPOSITION FOR PREVENTING OR TREATING BONE DISEASES, COMPRISING TRIPLE AGONIST OR CONJUGATE THEREOF HAVING ACTIVITY WITH RESPECT TO ALL OF GLUCAGON, GLP-1 AND GLP RECEPTORS” (HANMI PHARM. CO., LTD., priority 2020, published 2023).

Experiments:
[1] = tested on: MC3T3-E1 osteoblasts; assay: ColA1 protein in medium of MC3T3-E1 osteoblasts (collagen assay kit); type: cell-based; settings: co-treatment with GIP inhibitor (10 μM or 100 μM), 7 days (FIG. 4)
Description: MC3T3-E1 osteoblasts were dispensed into 12-well plates at 100,000 cells/well and incubated for 24 hours using a medium containing 10% fetal bovine serum. […] The long-acting GIP used in the present invention was prepared by the same method as in the long-acting conjugate of the triple agonist illustrated in Example 2, wherein the long-acting GIP is in a form in which immunoglobulin Fc was linked to GIP analog via PEG, and the GIP inhibitor is GIP 3-30, in which the N-terminus was absent in native GIP.
After 7 days, the incubated medium was collected, and ColA1 in the medium was quantified using a collagen assay kit (Biocolor) according to the manufacturer's instructions.
Statistical analysis was performed by one-way ANOVA to compare between the control group and the test groups.

[2] = tested on: MC3T3-E1 osteoblasts; assay: Cell viability of MC3T3-E1 osteoblasts under fetal bovine serum deficiency; type: cell-based; settings: co-treatment with conjugate (2 μM) and GIP inhibitor 0.31, 1.25, 5, 20 μM; dose-dependent manner (FIG. 5)
Description: MC3T3-E1 osteoblasts were dispensed into 96-well plates at 10,000 cells/well and incubated for 24 hours using a medium containing 10% fetal bovine serum. The medium in a normal group was replaced with a medium containing 10% bovine fetal serum, and the medium in each of the test groups was replaced with a medium containing no bovine fetal serum. […] The medium in each of the normal group and test groups was replaced, and after 48 hours, the cells were further incubated. Thereafter, the cell viability was analyzed using a collagen assay kit (Biocolor) according to the manufacturers instructions. The GIP inhibitor is GIP 3-30, in which the N-terminus region was absent in native GIP.

## GIP 3-30 (EGTFISDYSIAMDKIHQQDFVNWLLAQK; Gastric inhibitory polypeptide; UniProt P09681 54-81, looked up, fragment) [GIP inhibitor, GIP 3-30, in which the N-terminus was absent in native GIP, reference compound]
[1]
  effect of the long-acting conjugate of SEQ ID NO: 42 on the expression of ColA1 protein: reduced
[2]
  cell viability increased by the long-acting conjugate of SEQ ID NO: 42: reduced
